The values that follow are results of earlier work, collected in patent US20040162333A1, “Rapid absorption selective 5-HT agonist formulations” (priority 2003, published 2004).

The conditions of the data set: commercially available oral triptans.

For `CN(C)CCc1c[nH]c2ccc(CS(=O)(=O)N3CCCC3)cc12` [Almotriptan (Axert), Almotriptan], the “Time to Peak Effect (Tmax)” value was 1 to 3 h. As for `CN[C@@H]1CCc2[nH]c3ccc(C(N)=O)cc3c2C1` [Frovatriptan (Frova), Frovatriptan], the “Time to Peak Effect (Tmax)” value is 2 to 4 h.

As to `CNS(=O)(=O)CCc1ccc2[nH]cc(C3CCN(C)CC3)c2c1` [Naratriptan (Amerge), Naratriptan], the “Time to Peak Effect (Tmax)” value is 2 to 3 h.

As for `CN(C)CCc1c[nH]c2ccc(Cn3cncn3)cc12` [Rizatriptan (Maxalt), Rizatriptan], the “Time to Peak Effect (Tmax)” value is 1 to 1.5 h. Regarding `CNS(=O)(=O)Cc1ccc2[nH]cc(CCN(C)C)c2c1` [Sumatriptan], the “Time to Peak Effect (Tmax)” value is 2.5 h.

`CN(C)CCc1c[nH]c2ccc(C[C@H]3COC(=O)N3)cc12` [Zolmitriptan (Zomig), Zolmitriptan]: the “Time to Peak Effect (Tmax)” value was 2 h.
